Here are results for 73 compounds from PubChem BioAssay AID467 (The Scripps Research Institute Molecular Screening Center, 2006).

Calls of active or inactive are those of the source. The rule behind the calls is not given here. Bounds are passed on as bounds.

As usually defined, the EC50 is the midpoint of the concentration-response curve.

This assay deals with parental cell line counter screen, S1P1 agonist assay readout. The experiment in a line: signal in parental cells, counter-screen for S1P1 agonist project (AID 467).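 Note: agonist potency measured against forskolin stimulation plus an EC20 level of SEW2871.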
In the case of `Cc1ccc(-n2c(C)cc(C(=O)COC(=O)c3c(C)noc3C)c2C)cc1`, the EC50 is 37.6 µM (inactive). Take `O=S(=O)(NCc1cn2ccsc2n1)c1ccc(Oc2ccccc2)cc1`: the EC50 was 45.3 µM (inactive).

With `CC1(C)CC(=O)C(C=Nc2ccc3[nH]ncc3c2)=C(O)C1`, the EC50 is > 30 µM (inactive).

For `CCOc1ccc(S(=O)(=O)N2CCN(c3ccc(C)cc3C)CC2)cc1`, the EC50 is > 95.1 µM (inactive). The result for `O=S(=O)(c1cccs1)N1CCN(CC(O)COc2cc(Cl)ccc2Cl)CC1` (stereo not drawn) reads 24.6 µM (inactive).

As to `CCCCn1ccnc1C(=O)c1cccc(S(=O)(=O)N2c3ccccc3CC2C)c1` (stereo not drawn), the EC50 is > 95.1 µM (inactive). Turning to `CCCC(=O)Nc1ccc(-c2nc3cc(C)ccc3o2)cc1`, the EC50 is > 95.1 µM (inactive). As for `CC(C)c1ccc2oc(-c3cc(N)ccc3O)nc2c1`, the EC50 is > 30 µM (inactive). As for `Cc1nn(Cc2ccc(Cl)c(Cl)c2)c(C)c1NC(=O)c1cc(-c2ccco2)on1`, the EC50 was 13.2 µM (inactive). For `Cc1cc(N2CCN(c3nc4ccccc4s3)CC2)n2ncnc2n1`, the EC50 was > 95.1 µM (inactive).

Take `Cc1cccc(N2CCN(C(=O)C3CCCN(S(=O)(=O)c4cccc5cccnc45)C3)CC2)c1C` (stereo not drawn): the EC50 was 28.7 µM (inactive). Regarding `Clc1ccc(OCc2nnc(SCc3nc4ccccc4[nH]3)n2Cc2ccco2)cc1`, the EC50 is 36.4 µM (inactive). For `Cc1cc(C(=O)CSc2nnc(-c3ccncc3)n2-c2ccccc2)c(C)n1C`, the EC50 is > 95.1 µM (inactive). Turning to `CC(C)c1ccc(OCc2nc(-c3ccccn3)no2)c(Br)c1`, the EC50 was 63 µM (inactive). The result for `O=C1CC(N2CCN(C/C=C/c3ccccc3)CC2)C(=O)N1CCc1ccccc1` (stereo not drawn) reads > 30 µM (inactive); that for `Cc1ccc(O)c(NC(=O)CCC2CCCCC2)c1`, 50.1 µM (inactive). On to `Cc1nn(-c2nc3ccccc3s2)c(N)c1-c1ccccc1`, for which the EC50 is > 95.1 µM (inactive). Regarding `O=C(C1CC1)N1CCc2cc(S(=O)(=O)NCC3COc4ccccc4O3)ccc21` (stereo not drawn), the EC50 was > 30 µM (inactive). As to `C=C(C)COc1ccc(-c2nc(N)nc(C)c2Oc2ccccc2OC)c(O)c1`, the EC50 was > 10 µM (inactive).

With `CCOc1cc(-c2noc(-c3cccnc3)n2)ccc1OC`, the EC50 was > 95.1 µM (inactive). For the compound `CC1=CC(C)(C)Nc2ccc(OC(=O)c3cccnc3)cc21`, the EC50 is 4.43 µM.

As to `CCOC(=O)C1CCN(c2ncnc3c2oc2ccccc23)CC1`, the EC50 was 45.1 µM (inactive).

For `Clc1ccc(CSc2nnc(-c3ccncc3)o2)c(Cl)c1`, the EC50 was > 95.1 µM (inactive). The result for `COc1ccc2c(c1)CCc1c(C(=O)Nc3ccc(OC)c(OC)c3)noc1-2` reads > 95.1 µM (inactive); that for `CCCC(=O)c1ccc(N2CCN(C(=O)c3ccccc3Br)CC2)c(F)c1`, 28.2 µM (inactive). As for `CCOc1ccc(-c2nc(-c3ccc(OC)cc3)no2)cc1OCC`, the EC50 is > 95.1 µM (inactive). For `Clc1ccc(CCNc2ncnc3nc[nH]c23)cc1`, the EC50 is 33.6 µM (inactive).

`COC(=O)c1ccc(OCC(O)Cn2nnc3ccccc32)cc1` (stereo not drawn): the EC50 was > 95.1 µM (inactive). Take `COc1ccc(NC(=O)c2cc(-c3cccs3)on2)cc1OC`: the EC50 is > 95.1 µM (inactive). With `CSc1ccc(S(=O)(=O)Nc2ccc3c(c2)OCCO3)cc1`, the EC50 was 67.2 µM (inactive).

For `O=C1C2C3C=CC(CO)(O3)C2C(=O)N1c1ccccc1-c1ccccc1` (stereo not drawn), the EC50 was 2.26 µM. The result for `O=C(C1CCCN1S(=O)(=O)c1cccc2cccnc12)N1CCN(c2ccccc2)CC1` (stereo not drawn) reads > 95.1 µM (inactive); that for `Nc1nonc1C(=O)NCCNCc1cc(Br)ccc1OCc1ccccc1F`, 28.9 µM (inactive); that for `Cc1cc(NC(=O)c2oc3ccccc3c2C)ccc1-n1cnnn1`, > 30 µM (inactive). As for `O=C(C1CCN(S(=O)(=O)c2cccc3cccnc23)CC1)N1CCN(c2ccc(Cl)cc2)CC1`, the figure is 38.3 µM (inactive). The result for `CCOC(=O)C1CCN(c2ncnc3c2oc2ccc(Cl)cc23)CC1` reads > 95.1 µM (inactive); that for `Cc1cc(C(=O)CC#N)c(C)n1-c1ccc(OC(F)F)cc1`, > 95.1 µM (inactive). As for `CCN(CC)C(=O)C1CCN(S(=O)(=O)c2ccc3oc4ccccc4c3c2)CC1`, the EC50 is > 95.1 µM (inactive). In the case of `CCCn1c(CN2CCN(c3cccc(Cl)c3)CC2)nc2c1c(=O)n(C)c(=O)n2C`, the EC50 was > 95.1 µM (inactive).

For `CCOC(=O)/C=C/S(=O)(=O)c1ccc(NC(C)=O)cc1`, the EC50 is 3.96 µM. Regarding `Cc1ccc(-n2ncc3c(N4CCCC(C)C4)ncnc32)c(C)c1` (stereo not drawn), the EC50 is 36.1 µM (inactive). In the case of `COc1ccc(-c2cc(C(=O)NC3CCCC3)no2)cc1OC`, the EC50 was > 95.1 µM (inactive). As for `COc1ccccc1N/C(N)=N/c1nc(CSc2ccc(C)cc2)cc(=O)[nH]1`, the EC50 is > 95.1 µM (inactive). The result for `COc1ccc(N2C(=O)CC(Sc3ncn[nH]3)C2=O)c(OC)c1` (stereo not drawn) reads 4.91 µM; that for `Cc1cc(C)cc(-c2nc(-c3ccncc3)no2)c1`, > 95.1 µM (inactive). The result for `COc1cccc(-c2nnc3sc(C4CCCCC4)nn23)c1` reads 44.2 µM (inactive). The result for `C=CCn1c(SCC(=O)c2cccs2)nc2sc(CC)cc2c1=O` reads 58.6 µM (inactive).

Take `CCOc1ccc(C2CC(c3cccc(OC)c3OC)n3nnnc3N2)cc1Cl` (stereo not drawn): the EC50 is > 95.1 µM (inactive). `Clc1ccc(OCc2nnc(-c3ccccc3Br)o2)c(Cl)c1`: the EC50 was > 95.1 µM (inactive). The result for `CCOc1nc(C)ccc1-c1noc(-c2ccncc2)n1` reads > 95.1 µM (inactive); that for `CC1=C(C(=O)OCc2ccc3c(c2)OCO3)C(c2ccc(F)cc2)NC(=O)N1` (stereo not drawn), 2.3 µM; that for `Cn1c(C(=O)N2CCc3ccccc3C2)cc2oc3ccccc3c21`, 66.4 µM (inactive). The result for `CC(=O)N1CCCc2cc(S(=O)(=O)NCCC3=CCCCC3)ccc21` reads > 95.1 µM (inactive); that for `Cc1cc(C(=O)Nc2sc(C)c(-c3ccc(F)cc3)c2C(N)=O)no1`, > 95.1 µM (inactive). The result for `Cc1cccc(-c2nc(CSCC(=O)N3CCN(c4ccccn4)CC3)c(C)o2)c1` reads 31 µM (inactive). In the case of `CCN(CC)S(=O)(=O)c1cc(C(=O)Nc2ccncc2)ccc1Cl`, the EC50 was > 95.1 µM (inactive). Consider `CC(C)Cn1c(=O)c(C(=O)Nc2ccccc2S(N)(=O)=O)c(O)c2ccccc21`, for which the EC50 is 16.3 µM (inactive). The result for `CN(C)CC(C(=O)c1ccccc1)c1ccccc1` (stereo not drawn) reads 3.58 µM; that for `Cn1c(C(=O)N2CCCc3ccccc32)cc2sccc21`, > 95.1 µM (inactive).

`CCN=c1scc(-c2ccc3c(c2)NC(=O)CO3)n1N=C1CCCC1`: the EC50 is > 30 µM (inactive). For `Cc1nc2ccc3nc(NC(=O)C4COc5ccccc5O4)sc3c2s1` (stereo not drawn), the EC50 is > 95.1 µM (inactive). On to `COc1cccc(-c2cc(C(=O)Nc3ccccc3SC)no2)c1`, for which the EC50 is > 95.1 µM (inactive). As for `COC(=O)c1cc(CSc2nnc(-c3ccccc3)c(-c3ccccc3)n2)oc1C`, the EC50 was > 95.1 µM (inactive).

With `CCn1c(-c2cccc(Cl)c2)n[nH]c1=S`, the EC50 is > 95.1 µM (inactive). As for `O=C(c1ccccc1)C(CCC(CN1CCOCC1)C(=O)c1ccccc1)CN1CCOCC1` (stereo not drawn), the EC50 was 2.68 µM.

As for `Clc1ccc(-n2nnnc2Sc2ncnc3sccc23)cc1`, the concentration for a half-maximal effect (EC50) is 2.87 µM.

As for `Cn1nc(CC(=O)Nc2ccc(N3CCN(C(=O)OC(C)(C)C)CC3)cc2)c2ccccc2c1=O`, the EC50 is > 95.1 µM (inactive).

Turning to `c1ccc2c(c1)oc1c(NCc3ccc4c(c3)OCO4)ncnc12`, the EC50 was 38.9 µM (inactive). As for `c1ccc(N2CCN(c3ncnc4c3oc3ccccc34)CC2)cc1`, the figure is > 95.1 µM (inactive). The result for `O=C(Nc1ccccc1C(F)(F)F)c1cc(-c2ccc(O)cc2)on1` reads > 95.1 µM (inactive). In the case of `CCOC(=O)c1ccc2nc(NC(=O)c3ccco3)sc2c1`, the EC50 was > 95.1 µM (inactive). With `CC(C)(C)C1CCC2(CC1)C(C#N)=C(SCC(=O)Nc1ccccc1)NC(=O)C2C#N` (stereo not drawn), the EC50 was 7.15 µM. Turning to `c1ccc2c(c1)CCN(c1ncnc3c1[nH]c1ccccc13)C2`, the EC50 is 5.88 µM.
